Experimental data reported in patent US20080085833A1, “Use Of Glycerol As An Anti-Moss And/Or Anti-Lichen Agent” (priority 2004, published 2008).

System: mosses and lichens
Experiment: Anti-moss and anti-lichen effect of glycerol-based compositions, overall observation on mosses and lichens
Type: in vivo
Text: An anti-moss and/or anti-lichen composition is first prepared by solubilizing the required amount of glycerol in water at room temperature, in an appropriate vessel, to give a solution containing 99%, 65% or 20% by weight of glycerol.
The anti-moss and/or anti-lichen composition is maintained at this same temperature in a vessel fitted with a nozzle to enable the product to be sprayed onto a vertical or horizontal surface.
A sufficient amount of anti-moss and/or anti-lichen composition containing 99%, 65% or 20% by weight of glycerol, with or without gluconic acid, is applied by the process of the invention to 3 different surfaces covered with crustaceous lichens, gelatinous lichens and mosses.
For the series of 3 treatments, visual observations were made periodically after treatment with the glycerol compositions described, and then at regular intervals for 3 weeks.

**Q.** With `OCC(O)CO` [Pure glycerol, glycerol] as the compound, how does the “anti-moss and/or anti-lichen activity on dilution” value (glycerol diluted to 20%) read?
**A.** without losing its anti-moss and/or anti-lichen activity

**Q.** And the “efficacy for removing mosses and/or lichens” value (pure glycerol)?
**A.** effective
